Source: the NIST ThermoML archive (doi:10.1021/je500731x)

Conditions: Liquid, Ebulliometric method (Recirculating still)

CCCCCCCCC [nonane]
Conditions	vapor or sublimation pressure [kPa]
391.78 K	40
391.87 K	40
391.9 K	40

CCCCCC(C)=O [2-heptanone]
Conditions	vapor or sublimation pressure [kPa]
354.77 K	9.87
358.59 K	11.52
365.38 K	15.05
367.88 K	16.52
368.9 K	17.34
373.79 K	20.76
373.84 K	20.76
379.25 K	25.32
379.3 K	25.32
383.78 K	29.69
383.83 K	29.69
388.51 K	34.81
392.54 K	40
393.11 K	40.52
398.45 K	48.09
403.15 K	55.74
405.81 K	60.35
409.67 K	67.5
413.3 K	75.05
416.77 K	83.2
420.2 K	91.5

CCCCO [butan-1-ol]
Conditions	vapor or sublimation pressure [kPa]
390.49 K	101.3

CCCCCCCC [octane]
Conditions	vapor or sublimation pressure [kPa]
367.97 K	40
368.3 K	40
368.32 K	40

CCCCC(=O)CC [3-heptanone]
Conditions	vapor or sublimation pressure [kPa]
354.82 K	11.05
358.58 K	12.93
363.03 K	15.51
367.95 K	18.75
373.6 K	23.27
377.99 K	27.11
383.09 K	32.58
388.11 K	40
388.36 K	40
388.62 K	39.13
388.67 K	40
393.02 K	45.12
398.84 K	54.02
404.44 K	64.03
409.63 K	74.5
412.95 K	82
416.5 K	90.5

CCCC(=O)CCC [4-heptanone]
Conditions	vapor or sublimation pressure [kPa]
358.74 K	14.54
363.42 K	17.72
370.01 K	22.69
377.77 K	29.93
383.7 K	36.63
385.47 K	40
385.5 K	40
385.87 K	40
388.63 K	43.17
393.78 K	50.95
398.38 K	59.15
403.74 K	69.39
407.98 K	78.55
411.2 K	86.2
413.43 K	91.55

CCCCCCCCCC [decane]
Conditions	vapor or sublimation pressure [kPa]
413.88 K	40

CCO [ethanol]
Conditions	vapor or sublimation pressure [kPa]
351.14 K	101.3
